The test system of series [1] is anti-carbohydrate antibodies of baboon serums. Put plainly: Glycan array screening of baboon serums (406 glycans). It counts as binding, baboons (Papio anubis). As to conditions: for change of anti-carbohydrate antibodies after PRBC exposure: animal E19; for average±S.D. level of antibodies: before transplant/PRBC, animals without anti-Gal removal (A15, A14) or sampled before GAS914 (C63). An excerpt: Heterotopic pig heart and kidney were placed in the abdominal cavity of baboons as previously described (Schmoeckel M et al. 1998 Transplantation 65:1570-1577; Cozzi E et al. 1997 Transplantation. 64:1383-1392). Blood samples for anti-carbohydrate antibody analysis were obtained from each animal before transplantation and at acute humoral xenotransplant rejection (AHXR).
Three animals (D29, E19 and E7) were exposed to weekly injections of 5 cubic centimeters (cc) of PRBC three times and blood samples for anti-carbohydrate antibodies were analysed one week after last injection. Another animal received 7 daily injections of 5 cc of PRBC (C63), until an augment of the level of anti-pig hemolytic antibodies (APHA) was observed, and blood samples were analysed at days 2, 20 and 30 relative to the first PRBC injection.
The carbohydrate-binding specificity of baboon serums obtained before and after pig organ xenotransplantation or PRBC exposure was investigated on glycan array v4.1 comprised of 406 glycans (Consortium for Functional Glycomics, Protein-Glycan Interaction Core-H) (http://www.functionalglycomics.org). Two different studies were performed: Consortium for Functional Glycomics projects #1313 and #1577. Pre and post-immunization samples from each animal were analysed in the same glycoarray study with exception of C63 day 20, which was performed in study #1577 whilst the other samples from this animal were analysed in study #1313. In order to assess the potential effect of a different glycoarray study, a linear mixed model with repeated measures was fitted for each carbohydrate, with its log expression as dependent variable and type of sample (pre or post-immunization) and the study (#1313 or #1577) as independent variables.

Series [2] relates to anti-HA antibodies in rat serum. Put plainly: Specific ELISA for HA oligosaccharides, rats immunized with PRBC or hamster blood. As to conditions: for level of preformed antibodies in rats compared to humans: rats before exposure; for level of preformed antibodies in rats compared to humans / production of IgM antibodies: FIG. 6; for production of IgM antibodies / production of IgG antibodies: rats; for production of IgM antibodies: three injections of PRBC or hamster blood every other day; for production of IgG antibodies: three injections of PRBC or hamster blood every other week, FIGS. 7 and 8. In kind it is binding. The protocol:
Rats were immunized either with PRBC and hamster blood following two protocols to produce mainly IgM or IgG anti-carbohydrate antibodies. Three injections of 1 ml every other day (days 0, 2 and 4) and drawn of blood sample on day 5 was used to investigate IgM antibodies, and three injections every two weeks times 3, with blood obtained 12 days after last injection was used to investigate IgG antibodies.
(§1) The enzyme-linked immunosorbent assay (ELISA) plates were coated with HA oligosaccharides (disaccharide, tetrasaccharide and decasaccharide) conjugated with polyacrylamide, obtained from Shemyakin-Ovchinnikov Institute of Biorganic Chemistry, Russian Academy of Science (Moscow, Russia). The disaccharide form was synthesized in this institution, whilst the tetrasaccharide and decasaccharide molecules were obtained from Sigma, Spain, and bound to polyacrylamide in this center. The protocol for determination of anti-HA antibodies was based in previously described ELISAs to determine other anti-carbohydrate antibodies with minimal modifications (Mañez R et al. 2001 Xenotransplantation 8: 15-23; Obukhova P et al. 2007 Xenotransplantation 14: 627-635).
(ELISA stands for enzyme-linked immunosorbent assay.)

For series [3], the system named is anti-HA antibodies in human serum. Put plainly: Specific ELISA for HA oligosaccharides, human serum. In kind it is binding.
Source text: as §1
Humans also have preformed antibodies against HA disaccharide (von Gunten S et al. 2009 J Allergy Clin Immunol 123: 1268-1276; Huflejt M E et al. 2009 Mol Immunol 46: 3037-3049). Thus, we used human serums randomly selected to investigate by specific ELISAS, the presence of preformed antibodies against HA disaccharide, tetrasaccharide and decasacchride. Also, antibodies against HA oligosaccharides were investigated in rats immunized either with PRBC and hamster blood following two protocols to generate mainly IgM or IgG antibodies.
The inventors analyzed the level of anti-HA disaccharide antibodies by specific ELISA in patients with SLE and anti-DNA antibodies (Group A; n=17), SLE without anti-DNA antibodies (Group B; n=10) and controls from blood bank (Group C; n=13). The values for IgM anti-HA disaccharide antibodies were (mean±S.E.) 0.58±0.07 in Group A, 0.71±0.13 in Group B, and 0.74±0.11 in Group C, with p=0.1 in ANOVA comparing Group A with Groups B or C. For IgG, the values were 0.37±0.08 in Group A, 0.27±0.05 in Group B, 0.27±0.03 in Group C, with a p=0.3 in ANOVA comparing Group A with Groups B or C.

For series [4] the following is noted: baboon C63, 200 mg/kg CyP over 4 days from day 20, day relative to first PRBC injection.
Source text: The dose of CyP was chosen because it largely eliminates the mature immune system, leading to a major reduction in antibody and autoantibody levels, while leaving hematopoietic precursors intact.
The subject of series [5] is human endothelial cells (HMEC). Put plainly: Flow cytometry of non-human primate antibody binding to HMEC pre-treated with hyaluronidase. It counts as cell-based. From the text:
The authors have previously shown that immunization of non-human primates with pig blood is associated with the generation of xenoantibodies cross-reactive to human endothelial cells. To investigate whether HA antigens were involved in this reactivity, human endothelial cells (HMEC) were pre-treated with 20 Um′ of hyaluronidase from Streptomyces, which is specific for HA, for one hour. This hyaluronidase cleaves HA in fragments of 4 and 6 saccharides (tetra- and hexasaccharides). […] To show the effect of hyaluronidase pre-treatment in HA on HMEC cells, a hyaluronan-binding-protein (HABP), which binds to large molecular weight HA, was used as control (FIG. 9C).
In general terms: Flow cytometry measures light scatter and fluorescence of single cells or particles in a stream.

The test system of series [6] is hyaluronan (HA antigens) in pig xenograft tissue. Put plainly: Immunohistochemistry of IgM and IgG deposits in xenografts at AHXR with hyaluronidase pre-treatment. Further details: species or system pig xenograft in baboon. The protocol: In all the transplants an open xenograft biopsy was obtained 30 minutes after reperfusion, as well as at autopsy after AHXR. Tissue samples were fixed in 10% buffered formalin for at least 24 hours, dehydrated, and embedded in paraffin. Sections of 4 μm thickness were stained with hematoxylin and eosin Immunohistochemical examinations for IgG and IgM were performed in paraffin-embedded material. After inhibition of endogenous alkaline phosphatase with levamisol for 10 minutes, samples were incubated with goat anti-human IgG and IgM alkaline phosphatase conjugated (Sigma-Aldrich) for 30 minutes at 1:50 dilution. Tissue samples where then incubated with the EnVision™ G|2, Rabbit/Mouse (LINK) (Dako) following product recommendations. This reagent is a dextran polymer, which also carries antibodies to rabbit and mouse immunoglobulins. Finally, an alkaline phosphatase-labelled amplification polymer is added. The reaction is visualized by Permanent Red Chromogen also included in the kit. To investigate the potential role of hyaluronan as antigen some tissue sections were pre-treated with 50 u/mL of Streptomyces hyaluronidase (Sigma-Aldrich) for two hours at 37° C., which unlike other hyaluronidases is specific for hyaluronan.
To investigate the potential impact of HA antigens in AHXR, the presence of IgM and IgG deposits in tissue samples was investigated with and without previous incubation with Streptomyces hyaluronidase, which is specific for HA.

[7] abbreviates: animal D17, kidney xenotransplantation.
Where [8] appears, read: randomly selected human serums, FIG. 5.
[9] abbreviates: Group A: SLE and anti-DNA antibodies, n=17.
Where [10] appears, read: Group B: SLE without anti-DNA antibodies, n=10.
Setting [11] is: Group C: controls from blood bank, n=13.
Where [12] appears, read: hyaluronidase pre-treatment 20 Um′, one hour, serum of primates immunized with pig blood.

Several values for one entry are separate records, joined by “and”; a condition that tells them apart may be missing. Identical values can stand only once.

The source of these data is US9719987B2, “Immunoadsorbent compositions comprising hyaluronic acid oligosaccharides” (FUNDACIO INSTITUT D'INVESTIGACIO BIOMEDICA DE BELLVITGE …, priority 2012, dated 2017).

`C[C@@H]1O[C@@H](OCCCN)[C@H](O)[C@H](O)[C@H]1O` [Glycan 11, Rha-Sp8, reference compound]: the “change of anti-carbohydrate antibody reactivity at AHXR vs before transplantation” value in series [1] (setting [7]) was “augmented”.

With `CC(=O)N[C@H]1[C@H](O[C@H]2[C@H](O)[C@@H](O)[C@H](O[C@H]3[C@H](O)[C@@H](CO)OC(O)[C@@H]3NC(C)=O)O[C@@H]2C(=O)O)O[C@H](CO)[C@@H](O)[C@@H]1O[C@@H]1O[C@H](C(=O)O)[C@@H](O)[C@H](O)[C@H]1O` (stereo partly drawn) [HA tetrasaccharide], in series [2], the “level of preformed antibodies in rats compared to humans” value is recorded as “lower level”, the “production of IgM antibodies” value was “significant production of IgM antibodies” and the “production of IgG antibodies” value is recorded as “significant production”. For the same compound, in series [3] (setting [8]), the “preformed IgM antibodies in human serum” value is “preformed IgM antibodies”.

As to GlcAβ1-3GlcNAcβ-Sp8 [Glycan 300], the “cases with antibodies within the top 20 increases after PRBC exposure” value in series [1] (PRBC exposure, 4 baboons) was “all the cases”. The “change of anti-carbohydrate antibody reactivity at AHXR vs before transplantation” value in series [1] (animal A14, severe rejection) is reported as “More significant raises”; in series [1] (animal A15, no treatment, survival 4 days), “decreased reactivity”; in series [1] (animal D10, mild rejection), “moderated augment”; in series [1] (animal D12, severe rejection) it was “More significant raises”; in series [1] (setting [7]), “moderated augment”. Further, the “augment of antibodies after PRBC exposure” value in series [1] (animal C63, day 20, two weeks after end of PRBC injections) was “evidenced”; in series [1] (animal C63, day two, during PRBC exposure), “not present”. The “level of antibodies after PRBC exposure” value in series [1] (animal C63, day 30 after CyP treatment) is on record as “higher level of anti-carbohydrate antibodies”. Also, in series [1], the “change of anti-carbohydrate antibodies after PRBC exposure” value is “higher level and increase”. For the same compound, the entries for the “rank of average level of antibodies” value in series [1] (baboons before exposure to PRBC) and in series [1] (baboons before pig organ xenotransplantation) were “highest reactivity” and “second highest reactivity”, respectively. The “average±S.D. level of antibodies” value in series [1] is given as 18332±14201 net fluorescence units (NFU). The “level of preformed antibodies in rats compared to humans” value in series [2] is reported as “lower level”. The “production of IgM antibodies” value in series [2] was “significant production of IgM antibodies”. In addition, the “production of IgG antibodies” value in series [2] is on record as “significant production”. The “IgG anti-HA disaccharide antibodies (mean±S.E.)” value in series [3] (setting [9]) turned out to be 0.37±0.08; in series [3] (setting [10]), 0.27±0.05; in series [3] (setting [11]), 0.27±0.03. The “IgM anti-HA disaccharide antibodies (mean±S.E.)” value in series [3] (setting [9]) was found to be 0.58±0.07; in series [3] (setting [10]), 0.71±0.13; in series [3] (setting [11]), 0.74±0.11. The “preformed IgG antibodies in human serum” value in series [3] (setting [8]) is “preformed IgG antibodies are only against HA disaccharide”. The “preformed IgM antibodies in human serum” value in series [3] (setting [8]) is “preformed IgM antibodies”.

Consider `CC(=O)N[C@H]1C(O)O[C@H](CO)[C@@H](O[C@@H]2O[C@H](CO)[C@H](O)[C@H](O[C@H]3O[C@H](CO)[C@H](O)[C@H](O)[C@H]3O)[C@H]2O)[C@@H]1O` (stereo partly drawn) [Gal, Galα1-3Galβ1-4GlcNAc, reference compound], for which, in series [1], the “average±S.D. level of antibodies” value was 3865±2892 net fluorescence units (NFU).

Turning to `CC(=O)N[C@H]1[C@H]([C@H](O)[C@H](O)CO)O[C@](OCCCN)(C(=O)O)C[C@@H]1O` [Glycan 14, Neu5Acβ-Sp8, reference compound], in series [1], the “change of anti-carbohydrate antibodies after PRBC exposure” value is given as “barely changed”.

On to `O=P1(N(CCCl)CCCl)NCCCO1` (stereo not drawn) [CyP, cyclophosphamide], for which the “day of death because of side effects from CyP treatment” value in series [4] was 31 days and 30 days.

In the case of Hyaluronidase, the “non-human primate IgG antibody binding to HMEC” value in series [5] (setting [12]) is on record as “augment”. In series [5] (setting [12]), the “non-human primate IgM antibody binding to HMEC” value is listed as “not observed”. Besides, the “HA expression on HMEC detected with hyaluronan-binding-protein (HABP)” value in series [5] (hyaluronidase pre-treatment, compared to the baseline) is given as “reduction of HA expression”. Moreover, the “IgG antibody deposits in xenograft at AHXR, semiquantitative score” value in series [6] (animal A14, AHXR III) is “complete disappearance”; in series [6] (animal A15, AHXR III), “complete disappearance”; in series [6] (animal D10, AHXR I), “complete disappearance”; in series [6] (animal D12, AHXR III), “remarkable reduction”; in series [6] (animal D17, AHXR III), “remarkable reduction”. Moreover, the “IgM antibody deposits in xenograft at AHXR, semiquantitative score” value in series [6] (animal A14, AHXR III) is “notably reduced”; in series [6] (animal A15, AHXR III) it was “did not show any change”; in series [6] (animal D10, AHXR I), “disappeared”; in series [6] (animal D12, AHXR III) it was “notably reduced”; in series [6] (animal D17, AHXR III), “did not show any change”.
